{"source": "patent US11466047B2", "about": "“Cyclic di-nucleotide compounds as sting agonists” (Merck Sharp & Dohme Corp., priority 2017, dated 2022)", "key": {"full-length HAQ STING": {"target": "full-length HAQ STING (Homo sapiens (Human), UniProt Q86WV6, G230A/H232R/R293Q/R71H)", "sequence (Q86WV6 whole entry, looked up, stated change not applied)": "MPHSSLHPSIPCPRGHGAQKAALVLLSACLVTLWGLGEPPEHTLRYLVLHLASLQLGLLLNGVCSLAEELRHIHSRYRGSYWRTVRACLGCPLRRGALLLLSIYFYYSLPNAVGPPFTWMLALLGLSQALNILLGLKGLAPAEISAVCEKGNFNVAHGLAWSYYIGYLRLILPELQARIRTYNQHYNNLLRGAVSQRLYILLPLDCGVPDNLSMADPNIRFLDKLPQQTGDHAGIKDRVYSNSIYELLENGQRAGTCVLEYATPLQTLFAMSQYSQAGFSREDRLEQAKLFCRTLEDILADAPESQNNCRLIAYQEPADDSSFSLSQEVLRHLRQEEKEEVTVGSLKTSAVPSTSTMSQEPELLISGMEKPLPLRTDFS", "experiment": "3H-cGAMP filtration binding assay (HAQ STING)", "details": "competition with tritiated cGAMP ligand, HAQ STING membrane", "excerpt": "The ability of compounds to bind STING is quantified by the ability to compete with tritiated cGAMP ligand for human STING receptor membrane using a radioactive filter-binding assay. The binding assay employs STING receptor obtained from Hi-Five cell membranes overexpressing full-length HAQ STING prepared in-house and tritiated cGAMP ligand also purified in-house.\n(§1) The ability of compounds to bind STING is quantified by their ability to compete with tritiated cGAMP ligand for human STING receptor membrane using a radioactive filter-binding assay. The binding assay employs STING receptor obtained from Trichoplusia ni cell membranes (T.ni; Expression Systems, cat #94-002F, www.expressionsystems.com) overexpressing full-length HAQ STING and tritiated cGAMP ligand.\nThe basic HAQ STING filtration assay protocol is as follows:\nThe compounds were serially titrated by the Hamilton STARPlus CORE in a 96-well plate (Greiner, #651201) using a 1:3 ten-point dose response format. After compound preparation, a 2.2 ug/ml working concentration of STING membrane (SEQ. ID. No. 1) was prepared by diluting concentrated membrane into assay buffer (lx PBS; Invitrogen #SH30028.02) and douncing 7× using a manual tissue homogenizer (Wheaton, #357546). 148 uL of prepared membrane was then manually added to each well of a 96-well deep-well polypropylene plate (Fisher Scientific, #12-566-121). Following membrane addition, 2 uL of either titrated test compound, DMSO control (Sigma #276855), or cold cGAMP control was added to the appropriate wells using a BIOMEK FX. Compound and membrane then preincubated for 60 min at RT to allow compound binding to equilibrate. Following equilibration, 8 nM of [^3H]c-GAMP ligand was prepared by diluting into assay buffer, and 50 uL of this working stock was then manually added to each well of the assay plate. Plates were then incubated at RT for 60 min, and the contents of each assay plate were then filtered through a 96-well GF/B filter plate (PerkinElmer, #6005250) using a TOMTEC MACH III Cell Harvester equipped with 20 mM HEPES buffer (Fisher Scientific, #BP299500). The filter plates were then dried at 55° C. for 30 min using a pressurized oven before 30 uL of ULTIMA GOLD F scintillate was added to each well. Tritium levels for each reaction well were then measured using a PerkinElmer TopCount plate reader.\n(§2) After normalization to controls, the percent activity for each compound concentration was calculated by measuring the amount of remaining radioactivity. The plot of percent activity versus the log of compound concentration was fit with a 4-parameter dose response equation to calculate EC50 values."}, "full-length WT STING": {"target": "full-length WT STING (Homo sapiens (Human), UniProt Q86WV6, H232R)", "sequence (Q86WV6 whole entry, looked up, stated change not applied)": "as above", "experiment": "3H-cGAMP filtration binding assay (WT STING)", "details": "WT STING membrane", "experimental": "as §1, with “#94-002F,” for “#94-002F, www.expressionsystems.com)”, “WT” for “HAQ”\nThe basic WT STING filtration assay protocol is as follows:\n16 nM of [^3H] c-GAMP ligand was prepared by diluting into assay buffer, and 50 uL of this working stock was manually added to each well of the assay plate. After ligand addition, 2 uL of either titrated test compound, DMSO control (Sigma #276855), or cold cGAMP control was added to the appropriate wells using a BIOMEK FX. The serially titrated compound was prepared on a Hamilton STARPlus CORE in a 96-well plate (Greiner, #651201) using a 1:3 ten-point dose response format. Following compound addition, a 2.2 ug/ml working concentration of STING membrane (SEQ. ID. No. 3) was prepared by diluting concentrated membrane into assay buffer (1×PBS; Invitrogen #SH30028.02) and douncing 7× using a manual tissue homogenizer (Wheaton, #357546). 148 uL of this prepared membrane was then manually added to each well of a 96-well deep-well polypropylene plate (Fisher Scientific, #12-566-121). Compound, ligand, and membrane then incubated for 60 min at RT before the contents of each assay plate were filtered through a 96-well GF/B filter plate (PerkinElmer, #6005250) using a TOMTEC MACH III Cell Harvester equipped with 20 mM HEPES buffer (Fisher Scientific, #BP299500). The filter plates were then dried at 55° C. for 30 min using a pressurized VWR oven before 30 uL of ULTIMA GOLD F scintillate was added to each well. Tritium levels for each reaction well were then measured using a PerkinElmer TopCount plate reader.\nas §2"}, "THP1 cells": {"tested_on": "THP1 cells", "experiment": "IFN-β secretion in THP1 cell culture (5 h)", "type": "cell-based, human", "details": "30 μM compound, relative to 2′3′-cGAMP at 30 μM; for activation at 30 µM: Homo sapiens, THP-1, 5 h, read-out: % Effect at 30 μM relative to 2′3′-cGAMP", "experimental": "The ability of compounds to stimulate the secretion of interferon-beta from THP1 cells was measured using a human IFN-β AlphaLISA kit (Perkin Elmer, Cat. No. AL265F). The basic protocol is as follows:\nA Labcyte Echo 550 acoustic dispenser was used to transfer 120 nL of compound dissolved in DMSO into the wells of an empty, sterile 384-well microplate, (Corning, Cat. No. 3712). THP1 cells (American Type Culture Collection, Cat. No. TIB202) previously frozen in Recovery Medium (Life Technologies, Cat. No. 12648-010) were thawed and immediately diluted 10-fold into 37° C. assay medium (RPMI 1640+L-Glutamine & phenol red, Life Technologies, Cat. No. 11875-085; 0.5% heat inactivated fetal bovine serum, Sigma Aldrich, Cat. No. F4135; 1 mM Sodium Pyruvate, Life Technologies, Cat. No. 11360-070; lx non-essential amino acids; Life Technologies, Cat. No. 11140-050). The cell viability and count was ascertained using a Beckman Coulter V-Cell XR cell counter. The cell suspension was centrifuged at 200×g for 5 min at RT. Cells were resuspended to a density of 0.8×10^6/mL in 37° C. assay medium. Subsequent liquid transfers were performed using either a Matrix electronic multichannel pipette or an Agilent Bravo Automated Liquid Handling Platform.\nThe assay was started by dispensing 40 μL of the previously prepared cell suspension into the wells of the plate containing compounds. After 5 h incubation at 37° C., 5% CO2 in a humidified atmosphere, the plate of cells and compounds was centrifuged at 200×g for 5 min at RT. From each well, 5 μL of supernatant was transferred into corresponding wells of a white 384-well plate (Perkin Elmer, Cat. No. 6005620). To these supernatant-containing wells was added 10 μL of 5× Anti-Analyte Acceptor beads (50 μg/mL of AlphaLISA HiBlock Buffer) and incubated for 30 min at RT while shaking on an orbital plate shaker. To each well was added 10 μL of 5× Biotinylated Antibody Anti-analyte (5 nM in AlphaLISA HiBlock Buffer) and incubated on an orbital plate shaker for 60 min at RT or overnight at 4° C. To each well was added 25 μL of 2×SA-Donor beads (80 μg/mL in AlphaLISA HiBlock Buffer) and incubated for 30-45 min at RT in the dark while shaking on an orbital plate shaker. The plate was then read on a Perkin Elmer Envision (λex=680 nm, λem=570 nm). The percent effect of the AlphaLISA signal at each compound concentration was calculated based on 30 uM cGAMP positive controls and 0.3% DMSO negative controls. The plot of percent effect versus the log of compound concentration was fit with a 4-parameter concentration response equation to calculate EC50 values. The test compounds were tested at concentrations 30000, 10000, 3333, 1111, 370.4, 123.4, 41.2, 13.7, 4.6, and 1.5 nM with 0.3% residual DMSO. The control compound, cGAMP was tested at concentrations 100000, 33333, 11111, 3704, 1235, 412, 137, 46, and 15 nM with 0.3% residual DMSO.\nCompounds of the disclosure were evaluated for IFN-β secretion in THP1 cell culture as described above. The following table tabulates the biological data for these compounds as percent activation relative to 2′3′-cGAMP at the 30 μM concentration."}, "[1]": {"details": "competition with tritiated cGAMP ligand, read-out: EC50"}}, "note": "Read-outs that look alike come from different tables or passages of the source."}
{"smiles": "Nc1nc2c(ncn2[C@@H]2O[C@@H]3COP(=S)(S)O[C@H]4C[C@H](c5cnc6c(N)ncnn56)O[C@@H]4COP(O)(=S)O[C@@H]2C3)c(=O)[nH]1", "note": "(single isomer, unassigned) [Example 8]", "values": [{"measurement": "EC50", "setting": "full-length HAQ STING", "result": 7, "unit": "nM"}, {"measurement": "EC50", "setting": "full-length WT STING; [1]", "result": 13, "unit": "nM"}, {"measurement": "% Effect at 30 μM relative to 2′3′-cGAMP", "setting": "THP1 cells", "result": 110, "unit": "%"}]}
{"smiles": "Nc1nc2c(ncn2[C@@H]2O[C@@H]3COP(=S)(S)O[C@H]4C[C@H](n5ccc6c(N)ncnc65)O[C@@H]4COP(O)(=S)O[C@@H]2C3)c(=O)[nH]1", "note": "(single isomer, unassigned) [Example 5]", "values": [{"measurement": "EC50", "setting": "full-length HAQ STING", "result": "< 1", "unit": "nM"}, {"measurement": "EC50", "setting": "full-length WT STING; [1]", "result": 8, "unit": "nM"}, {"measurement": "activation at 30 µM", "setting": "THP1 cells", "result": 95, "unit": "%"}]}
{"smiles": "Nc1nc2c(ncn2[C@@H]2O[C@@H]3COP(=S)(S)O[C@H]4C[C@H](n5ccc6c(N)ncnc65)O[C@@H]4COP(O)(=S)O[C@@H]2C3)c(=O)[nH]1", "note": "(single isomer, unassigned) [Example 6]", "values": [{"measurement": "EC50", "setting": "full-length HAQ STING", "result": 28, "unit": "nM"}, {"measurement": "EC50", "setting": "full-length WT STING; [1]", "result": 115, "unit": "nM"}, {"measurement": "% Effect at 30 μM relative to 2′3′-cGAMP", "setting": "THP1 cells", "result": 91, "unit": "%"}]}
{"smiles": "Nc1nc2c(ncn2[C@@H]2S[C@@H]3COP(=S)(S)O[C@H]4[C@H]5OC[C@]4(COP(=O)(O)O[C@@H]2[C@@H]3O)O[C@H]5n2cnc3c(N)ncnc32)c(=O)[nH]1", "note": "(stereo partly drawn) [Example 21, 2-amino-9-[(5R,7R,8R,12aR,14R,15R, 15aS,18S)-14-(6-amino-9H-purin-9-yl)-10,18-dihydroxy-10-oxido-2-sulfanyl-2-sulfidohexahydro-14H-15,12a-(epoxymethano)-5,8-methanofuro[3,2-1][1,3,9,11,6,2,10]tetraoxathiadiphosphacyclotetradecin-7(12H)-yl]-1,9-dihydro-6H-purin-6-one]", "values": [{"measurement": "EC50", "setting": "full-length HAQ STING", "result": 217, "unit": "nM"}, {"measurement": "EC50", "setting": "full-length WT STING; [1]", "result": 1550, "unit": "nM"}, {"measurement": "activation at 30 µM", "setting": "THP1 cells", "result": 45, "unit": "%"}]}
{"smiles": "Nc1nc2c(ncn2[C@@H]2O[C@@H]3COP(=S)(S)O[C@H]4C[C@H](n5cnc6c(N)ncnc65)O[C@@H]4COP(O)(=S)O[C@@H]2C3)c(=O)[nH]1", "note": "(single isomer, unassigned) [Example 3]", "values": [{"measurement": "EC50", "setting": "full-length HAQ STING", "result": 2, "unit": "nM"}, {"measurement": "EC50", "setting": "full-length WT STING; [1]", "result": 4, "unit": "nM"}, {"measurement": "activation at 30 µM", "setting": "THP1 cells", "result": 128, "unit": "%"}]}
{"smiles": "Nc1nc2c(ncn2[C@@H]2O[C@@H]3COP(=S)(S)O[C@H]4[C@H](F)[C@H](n5cnc6c(N)ncnc65)O[C@@H]4COP(O)(=S)O[C@@H]2[C@@H]3F)c(=O)[nH]1", "note": "(single isomer, unassigned) [Example 1]", "values": [{"measurement": "EC50", "setting": "full-length HAQ STING", "result": "< 1", "unit": "nM"}, {"measurement": "EC50", "setting": "full-length WT STING; EC50, competition with tritiated cGAMP ligand", "result": "< 1", "unit": "nM"}, {"measurement": "activation at 30 µM", "setting": "THP1 cells", "result": 165, "unit": "%"}]}
{"smiles": "Nc1nc2c(ncn2[C@@H]2S[C@@H]3COP(=S)(S)O[C@H]4[C@H](F)[C@H](n5cnc6c(N)ncnc65)O[C@@H]4COP(=O)(O)O[C@@H]2[C@@H]3O)c(=O)[nH]1", "note": "(stereo partly drawn) [Example 20, 2-amino-9-[(5R,7R,8R,12aR,14R,15S,15aR,16S)-14-(6-amino-9H-purin-9-yl)-15-fluoro-10,16-dihydroxy-10-oxido-2-sulfanyl-2-sulfidooctahydro-12H-5,8-methanofuro[3,2-l][1,3,9,11,6,2,10]tetraoxathiadiphosphacyclotetradecin-7-yl]-1,9-dihydro-6H-purin-6-one]", "values": [{"measurement": "EC50", "setting": "full-length HAQ STING", "result": 1, "unit": "nM"}, {"measurement": "EC50", "setting": "full-length WT STING; [1]", "result": 3, "unit": "nM"}, {"measurement": "activation at 30 µM", "setting": "THP1 cells", "result": 137, "unit": "%"}]}
{"smiles": "Nc1nc2c(ncn2[C@@H]2O[C@@H]3COP(=S)(S)O[C@H]4[C@H]5OC[C@]4(COP(O)(=S)O[C@@H]2[C@H]3F)O[C@H]5n2cnc3c(N)ncnc32)c(=O)[nH]1", "note": "(stereo partly drawn) [Example 9, 2-amino-9-[(5R,7R,8S,12aR,14R,15R, 15aS,18S)-14-(6-amino-9H-purin-9-yl)-18-fluoro-10-hydroxy-2-sulfanyl-2,10-disulfidohexahydro-14H-15,12a-(epoxymethano)-5,8-methanofuro[3,2-1][1,3,6,9,11,2,10]pentaoxadiphosphacyclotetradecin-7(12H)-yl]-1,9-dihydro-6H-purin-6-one]", "values": [{"measurement": "EC50", "setting": "full-length HAQ STING", "result": 349, "unit": "nM"}, {"measurement": "EC50", "setting": "full-length WT STING; [1]", "result": 4390, "unit": "nM"}, {"measurement": "activation at 30 µM", "setting": "THP1 cells", "result": 26, "unit": "%"}]}
